From US20110033837A1 (priority 2007, published 2011)

Assays:
primary HIV-1 isolates = settings: isolates P-31, P-41-0, P41-28 and P-51; IsnoR5 clone 2 cells; 1 μg/ml AMD 3100
Description: Virus-containing supernatants, normalized to 5 ng/ml HIV-1 Gag p24, were titrated in the IsnoR5 clones in the absence and presence of 1 μg/ml AMD 3100. After 14 days, cell free supernatants tested for viral Gag protein by p24 antigen capture assay. The number of positive wells was used to determine the TCID50 of the original sample.
Virus isolation was performed as previously described (Holtkamp et al., 2000) except that viral replication was detected using an antigen capture enzyme-linked immunosorbent assay (ELISA) for the HIV-1 Gag p24 core protein. Inactivated supernatants (0.2% Tween 20) were titrated on ELISA plates coated with the Gag-specific monoclonal antibody Ag3.0 (hybridoma kindly provided by Jon Allan, Southwest Foundation, San Antonio, Tex., USA). […] Captured protein was detected using pooled sera from HIV-1 positive individuals followed by a goat antihuman immunoglobulin G-peroxidase conjugate (Sigma-Aldrich, Taufkirchen, Germany). Virus levels were calculated by comparison with a standard HIV-1 supernatant of known p24 Gag concentration.
Virus-containing supernatants were serially diluted in media and aliquoted (50 μl per well, six replicates per dilution) into U-well microtiter plates containing 2×10^5 of IsnoR5 clones 1 or 2 or 4.5×10^5 PBMC from healthy blood donors in 150 μl medium. […]

[1] = tested on: CXCR4-tropic virus strains; settings: cited from earlier work
[2] = tested on: dualtropic viruses that use CCR5 and CXCR4; settings: human PBMC; cited from earlier work

## c1cc(CN2CCCNCCNCCCNCC2)ccc1CN1CCCNCCNCCCNCC1 [AMD 3100]
Primary HIV-1 isolates
  Replication of isolates in the presence of AMD 3100 (FIG. 5): all were inhibited from replication
[1]
  Infection of cells by CXCR4-tropic virus strains: preventing infection
[2]
  Block of dualtropic viruses: efficiently block
